Measured values reported in PMC8765437, “GSK3640254 Is a Novel HIV-1 Maturation Inhibitor with an Optimized Virology Profile” (Antimicrobial Agents and Chemotherapy, 2022).
Read-outs that look alike come from different tables or passages of the source.

Test system: NLRepRlucP373S viruses containing Gag SDMs or gag/pr genes from clinical isolates
Test: Multiple-cycle replication assay, NLRepRluc reporter viruses in MT-2 cells, luciferase endpoint
Type: cell-based, HIV-1
Text: Multiple-cycle assays using recombinant viruses or clinical isolates were used to assess MI antiviral activity as described previously ([10]). pNLRepRlucP373S (the P373S change is in the Gag gene and converts an outlier polymorphism in the NL4-3 gene to the prevalent amino acid in the population) plasmids containing SDMs in Gag or gag/pr regions from clinical isolates were transfected into HEK 293T cells, and the supernatant containing recombinant virus was harvested after 4 to 5 days. Virus was used to infect MT-2 cells in the presence of a 3-fold serially diluted compound at a final dimethyl sulfoxide (DMSO) concentration of 1%. The inocula of the reporter viruses were determined based on the luciferase activity detected on day 4 postinfection. The MOI (ratio of infectious virions to target cells) of reporter-free laboratory strains and clinical isolates was 0.005, as derived from a tissue culture infectious dose study. Clinical isolates or reporter-free viruses were examined in the reporter CEM-NKR-CCR5-Luc cells or PBMCs at MOIs ranging from 0.005 to 0.01. Each infection started with a drug-free preincubation of the cell-virus mixtures, performed at 37°C and 5% CO2 for either 1 h at 2 times the final cell density (reporter viruses) or 1 h (reporter-free laboratory strains) or 3 h (clinical isolates) using cell pellets in 0.5 mL of medium. After preincubation, cell-virus mixtures were added to compound-containing 96-well plates for a final cell density of either 10,000 (MT-2 cells for reporter viruses), 20,000 (MT-2 and PM1 cells for reporter-free laboratory strains), 200,000 (PBMCs for clinical isolates), or 500,000 (CEM-NKR-CCR5-Luc for reporter-free laboratory strains) cells per well. The CEM-NKR-CCR5-Luc cell assay was performed in the presence of Polybrene (10 μg/mL). Virus growth was determined on days 4 to 5 postinfection for reporter variants or days 5 to 11 for the other viruses. The reporter viruses were detected by a luciferase assay according to manufacturer protocols (Brite-Glo luciferase kit [Promega] for CEM-NKR-CCR5-Luc cells and Dual-Luciferase Reporter 1000 assay system [Promega] for the other cells), and luminescence was detected on a Wallac Trilux. The growth of clinical isolates in PBMCs was quantitated by reverse transcriptase activity in a 96-well scintillation proximity assay (SPA). Twenty microliters of culture supernatants was mixed with 40 μL of reaction cocktail (62.5 mM Tris-HCl [pH 7.8], 100 mM KCl, 0.0625% NP-40, 2.5 mM dithiothreitol [DTT], 6.25 mM MgCl2, 1 mM EGTA, 6.25 μg/mL of poly rA, 2.5 μg/mL of streptavidin SPA beads prebound with biotinylated-dT12-18, and 1 μCi of [^3H]TTP). Mixtures were incubated at 37°C for ∼3 h and quenched with 100 μl of 0.25 M EDTA per well. Luminescence was detected on a Wallac Trilux programmed for tritium counting with SPA beads in opaque plates. The growth of the reporter-free laboratory M-tropic strains and clinical isolates was monitored by a p24 enzyme-linked immunosorbent assay (ELISA; PerkinElmer Life Sciences, Waltham, MA) performed on culture supernatants. […] A 1:1,000 dilution of cell supernatant in PBS was generally observed to fall in the dynamic range of the endpoint signal.
Maximal percent inhibition values were calculated as MPI = 100 – (mean signals at the 2 highest concentrations of compound/mean signal of 2 no-drug control wells) × 100.

C=C(C)[C@@H]1CC[C@]2(NCCN3CCS(=O)(=O)CC3)CC[C@]3(C)[C@H](CC[C@@H]4[C@@]5(C)CC=C(c6ccc(C(=O)O)cc6)C(C)(C)[C@@H]5CC[C@]43C)[C@@H]12 [GSK’795, reference compound]
MPI (A366V-containing viruses): −13 to 408%
EC50 (Human immunodeficiency virus 1, MT2, Table S1, SDM A326T/V362I/V370A): ≥ 3 µM
EC50 (Human immunodeficiency virus 1, MT2, Table S1, SDM S368R/V370A): 0.002 µM
EC50 (Human immunodeficiency virus 1, MT2, Table S1, SDM T332S/V362I/PrR41G): 0.7 µM
EC50 (Human immunodeficiency virus 1, MT2, Table S1, SDM V362I/V370A): ≥ 3 µM
EC50 (Human immunodeficiency virus 1, MT2, Table S1, SDM V370A): 0.006 µM
EC50 (Human immunodeficiency virus 1, MT2, Table S1, SDM V370A/ΔT371): 0.007 µM
EC50 (Human immunodeficiency virus 1, MT2, Table S1, SDM ΔV370): 0.006 µM
EC50 (Human immunodeficiency virus 1, MT2, Table S1, subtype B SDM Wild-type (V, QVT)): 0.005 µM
EC50 (Human immunodeficiency virus 1, MT2, read-out: EC50 (range), Subtype C gag/pr viruses, n=11): 0.003 to 0.022 µM
EC50 (Human immunodeficiency virus 1, MT2, read-out: EC50 (range), V362I only viruses, n=9): 0.003 to 0.054 µM
EC50 (Human immunodeficiency virus 1, MT2, read-out: EC50 (range), Wild-type subtype B, n=5): 0.001 to 0.006 µM
EC50 (Human immunodeficiency virus 1, MT2, read-out: Mean ± SD EC50, A366V-containing viruses (A366V, V362I/A366V, V362I/A366V/V370M, A366V/V370M)): > 3 µM
EC50 (Human immunodeficiency virus 1, MT2, read-out: Mean ± SD EC50, SDM A326T/V362I/V370A): > 3 µM
EC50 (Human immunodeficiency virus 1, MT2, read-out: Mean ± SD EC50, SDM A364V): > 3 µM
EC50 (Human immunodeficiency virus 1, MT2, read-out: Mean ± SD EC50, SDM R361K/V362I/L363M): 0.552 ± 0.971 µM
EC50 (Human immunodeficiency virus 1, MT2, read-out: Mean ± SD EC50, SDM T332S/V362I/prR41G): 0.704 ± 0.606 µM
EC50 (Human immunodeficiency virus 1, MT2, read-out: Mean ± SD EC50, SDM V362I/V370A): > 3 µM
EC50 (Human immunodeficiency virus 1, MT2, read-out: Mean ± SD EC50, SDM V370A): 0.006 µM
EC50 (Human immunodeficiency virus 1, MT2, read-out: Mean ± SD EC50, SDM Wild type): 0.005 ± 0.003 µM
EC50 (Human immunodeficiency virus 1, MT2, read-out: Mean ± SD EC50, SDM ΔV370): 0.006 ± 0.002 µM
EC50 (Human immunodeficiency virus 1, MT2, read-out: Mean ± SD EC50, Subtype B gag/pr viruses, n=24): 0.066 µM
EC50 (Human immunodeficiency virus 1, MT2, read-out: Mean ± SD EC50, Subtype C gag/pr viruses, n=11): 0.0091 ± 0.0056 µM
EC50 (Human immunodeficiency virus 1, MT2, read-out: Mean ± SD EC50, V362I only viruses, n=9): 0.0111 ± 0.0163 µM
EC50 (Human immunodeficiency virus 1, MT2, read-out: Mean ± SD EC50, V362I/ΔV370 virus, n=1): 1.4 µM
EC50 (Human immunodeficiency virus 1, MT2, read-out: Mean ± SD EC50, Wild-type subtype B (V362, Q369, V370, T371), n=5): 0.0028 ± 0.0025 µM
EC50 (Human immunodeficiency virus 1, MT2, read-out: Median EC50, Subtype B gag/pr viruses, n=24): 0.005 µM
EC50 (Human immunodeficiency virus 1, MT2, read-out: Median EC50, Subtype C gag/pr viruses, n=11): 0.007 µM
EC50 (Human immunodeficiency virus 1, MT2, read-out: Median EC50, V362I only viruses, n=9): 0.005 µM
EC50 (Human immunodeficiency virus 1, MT2, read-out: Median EC50, Wild-type subtype B, n=5): 0.001 µM
EC90 (Human immunodeficiency virus 1, MT2, read-out: PBA EC90, Table S1, SDM R361K/V362I/L363M): 321 µM
EC90 (Human immunodeficiency virus 1, MT2, read-out: PBA EC90, Table S1, SDM S368R/V370A): 0.04 µM
EC90 (Human immunodeficiency virus 1, MT2, read-out: PBA EC90, Table S1, SDM T332S/V362I/PrR41G): 422 µM
EC90 (Human immunodeficiency virus 1, MT2, read-out: PBA EC90, Table S1, SDM V370A): 0.05 µM
EC90 (Human immunodeficiency virus 1, MT2, read-out: PBA EC90, Table S1, SDM V370A/ΔT371): 0.23 µM
EC90 (Human immunodeficiency virus 1, MT2, read-out: PBA EC90, Table S1, SDM ΔV370): 1.03 µM
EC90 (Human immunodeficiency virus 1, MT2, read-out: PBA EC90, Table S1, subtype B SDM Wild-type (V, QVT)): 0.11 µM
EC90 (Human immunodeficiency virus 1, MT2, read-out: PBA EC90, subtype B gag/pr 4NRR (Wild-type)): 0.07 µM
EC90 (Human immunodeficiency virus 1, MT2, read-out: PBA EC90, subtype B gag/pr 28-MDR (Wild-type)): 0.1 µM
EC90 (Human immunodeficiency virus 1, MT2, read-out: PBA EC90, subtype B gag/pr 92BR014 (V370M)): 0.37 µM
EC90 (Human immunodeficiency virus 1, MT2, read-out: PBA EC90, subtype B gag/pr 92BR018 (V, QAΔ)): 0.97 µM
EC90 (Human immunodeficiency virus 1, MT2, read-out: PBA EC90, subtype B gag/pr 92TH014 (V362I)): 0.67 µM
EC90 (Human immunodeficiency virus 1, MT2, read-out: PBA EC90, subtype B gag/pr 92TH026 (V362I)): 0.21 µM
EC90 (Human immunodeficiency virus 1, MT2, read-out: PBA EC90, subtype B gag/pr 92US072 (V362I)): 0.13 µM
EC90 (Human immunodeficiency virus 1, MT2, read-out: PBA EC90, subtype B gag/pr 92US729 (Wild-type)): 0.07 µM
EC90 (Human immunodeficiency virus 1, MT2, read-out: PBA EC90, subtype B gag/pr 93BR008 (V362I)): 0.12 µM
EC90 (Human immunodeficiency virus 1, MT2, read-out: PBA EC90, subtype B gag/pr 93BR009 (V370M)): 0.13 µM
EC90 (Human immunodeficiency virus 1, MT2, read-out: PBA EC90, subtype B gag/pr 93BR017 (V, QAΔ)): 0.6 µM
EC90 (Human immunodeficiency virus 1, MT2, read-out: PBA EC90, subtype B gag/pr 93BR022 (V, QAΔ)): 0.63 µM
EC90 (Human immunodeficiency virus 1, MT2, read-out: PBA EC90, subtype B gag/pr 93TH0647 (V362I)): 0.06 µM
EC90 (Human immunodeficiency virus 1, MT2, read-out: PBA EC90, subtype B gag/pr 93US141 (V362I)): 0.25 µM
EC90 (Human immunodeficiency virus 1, MT2, read-out: PBA EC90, subtype B gag/pr 411-1-C (Wild-type)): 0.04 µM
EC90 (Human immunodeficiency virus 1, MT2, read-out: PBA EC90, subtype B gag/pr 220162 (Wild-type)): 0.6 µM
EC90 (Human immunodeficiency virus 1, MT2, read-out: PBA EC90, subtype B gag/pr 400024 (V370M)): 79 µM
EC90 (Human immunodeficiency virus 1, MT2, read-out: PBA EC90, subtype B gag/pr 400051 (V370A)): 0.03 µM
EC90 (Human immunodeficiency virus 1, MT2, read-out: PBA EC90, subtype B gag/pr 1000038 (V362I/V370A)): 977 µM
